From US11530179B2, “Amorphous solid succinylated 3-(fatty acid amido)-2-hydroxy-1 -(protected hydroxy)-propane salts and methods of making the same” (Geron Corporation, priority 2019, dated 2022)

Key:
Format in all cases: physicochemical
[1] = Physical form at room temperature (isolation and storage)
[2] = Solubility in organic solvents; conditions: most organic solvents, at or below ambient temperature
[3] = Physical stability at room temperature under different relative humidity (RH); conditions: for Physical stability, Observation: 20-25° C., 300 mg in uncapped scintillation vial
Method: The physical stability of the amorphous 3-(palmitoyl amido)-2-hydroxy-1-(dimethoxytriphenylmethyl hydroxy)-propane lithium salts were tested at room temperature under different relative humidity (RH). 300 mg of amorphous 3-(palmitoyl amido)-2-hydroxy-1-(dimethoxytriphenylmethyl hydroxy)-propane lithium salt was placed in uncapped scintillation vials at 11% RH, 33% RH and 75% RH for days. (Table 1)

## CCCCCCCCCCCCCCCC(=O)NCC(COC(c1ccccc1)(c1ccc(OC)cc1)c1ccc(OC)cc1)OC(=O)CCC(=O)[O-].[Li+] (stereo not drawn) [succinylated 3-(palmitoyl amido)-2-hydroxy-1-(dimethoxytriphenylmethyl hydroxy)-propane lithium salt]
[1]
  Physical form: stable solids
[2]
  Solubility in organic solvents: highly soluble
[3]; 11% RH, examined by gently shaking once every day
  Physical stability, Observation: Remains free-flowing solids up to 14 days*
[3]; 33% RH, examined by gently shaking once every day
  Physical stability, Observation: Remains free-flowing solids up to 14 days*
[3]; 75% RH
  Physical stability, Observation: Turns to sticky after 30 min
[3]; room temperature, up to 33% relative humidity
  Physical stability: remained solid for an extended period of time
